The values below come from ChEMBL document CHEMBL1133848, “Novel synthesis and RNA-binding properties of aminoglycoside dimers conjugated via a naphthalene diimide-based intercalator” (Bioorg Med Chem Lett, 2001).

By Kd is commonly meant the constant that tells how readily two partners part at equilibrium. Low readings indicate tighter binding, high ones weaker binding.

A short description of this assay: Dissociation constant with dimeric 16S rRNA RNA construct B.
`NC[C@H]1O[C@H](O[C@H]2[C@H](O)[C@@H](O[C@H]3O[C@H](CSCCOCCSCC(O)CN4C(=O)c5ccc6c7c(ccc(c57)C4=O)C(=O)N(CC(O)CSCCOCCSC[C@H]4O[C@H](O[C@@H]5[C@@H](O)[C@H](O[C@H]7O[C@H](CN)[C@@H](O)C[C@H]7N)[C@@H](N)C[C@H]5N)[C@H](O)[C@@H](N)[C@@H]4O)C6=O)[C@@H](O)[C@H](N)[C@H]3O)[C@H](N)C[C@@H]2N)[C@H](N)C[C@@H]1O` (some centres undefined) yielded a Kd of 1110 nM. As for `CN(C)C1=CC2Oc3cc(N(C)C)ccc3C(c3ccc(C(=O)NC[C@@H]4O[C@H](O[C@H]5[C@@H](O)[C@H](O[C@@H]6[C@H](O)[C@H](N)C[C@@H](N)[C@H]6O[C@H]6O[C@@H](CO)[C@@H](O)[C@H](O)[C@@H]6N)O[C@@H]5CO)[C@H](N)[C@H](O)[C@@H]4O)cc3C(=O)O)=C2C=C1` (some centres undefined), the Kd is 280 nM. As to `NCC1O[C@H](O[C@H]2[C@@H](O)[C@H](O[C@H]3[C@H](O)[C@@H](N)C[C@@H](N)[C@@H]3O[C@H]3O[C@H](CN)[C@@H](O)[C@H](O)[C@H]3N)O[C@@H]2CSCCOCCSSCCOCCSC[C@H]2O[C@H](O[C@@H]3[C@@H](O)[C@H](O[C@H]4O[C@H](CN)[C@@H](O)C[C@H]4N)[C@@H](N)C[C@H]3N)[C@H](O)[C@@H](N)[C@@H]2O)[C@H](N)[C@@H](O)[C@@H]1O` (some centres undefined), binding was characterised by a dissociation constant (Kd) of 290 nM. In turn, `NC[C@@H]1O[C@H](O[C@H]2[C@@H](O)[C@H](O[C@H]3[C@H](O)[C@@H](N)C[C@@H](N)[C@@H]3O[C@H]3O[C@H](CN)[C@@H](O)[C@H](O)[C@H]3N)O[C@@H]2CSCCOCCSCC(O)CN2C(=O)c3ccc4c5c(ccc(c35)C2=O)C(=O)N(CC(O)CSCCOCCSC[C@H]2O[C@H](O[C@@H]3[C@@H](O)[C@H](O[C@H]5O[C@H](CN)[C@@H](O)C[C@H]5N)[C@@H](N)C[C@H]3N)[C@H](O)[C@@H](N)[C@@H]2O)C4=O)[C@H](N)[C@@H](O)[C@@H]1O` (some centres undefined) registered a dissociation constant (Kd) of 150 nM. `NC[C@@H]1O[C@H](O[C@@H]2[C@H](O[C@@H]3OC(CSCCOCCSCC(O)CN4C(=O)c5ccc6c7c(ccc(c57)C4=O)C(=O)N(CC(O)CSCCOCCSC[C@H]4O[C@@H](O[C@H]5[C@H](O)[C@@H](N)C[C@@H](N)[C@@H]5O[C@H]5O[C@H](CN)[C@@H](O)[C@H](O)[C@H]5N)[C@H](O)[C@@H]4O[C@H]4O[C@@H](CN)[C@@H](O)[C@H](O)[C@H]4N)C6=O)[C@@H](O[C@@H]4O[C@H](CN)[C@H](O)C(O)[C@H]4N)[C@H]3O)[C@@H](O)[C@@H](N)C[C@@H]2N)[C@@H](N)[C@@H](O)[C@@H]1O` (some centres undefined) returned a Kd of 10 nM. In the case of `NCC1O[C@H](O[C@H]2[C@@H](O)[C@H](O[C@H]3[C@H](O)[C@@H](N)C[C@@H](N)[C@@H]3O[C@H]3O[C@H](CN)[C@@H](O)[C@H](O)[C@H]3N)O[C@@H]2CSCCOCCSSCCOCCSC[C@H]2O[C@@H](O[C@H]3[C@H](O)[C@@H](N)C[C@@H](N)[C@@H]3O[C@H]3O[C@H](CN)[C@@H](O)[C@H](O)[C@H]3N)[C@H](O)[C@@H]2O[C@@H]2OC(CN)[C@H](O)[C@@H](O)[C@@H]2N)[C@H](N)[C@@H](O)[C@@H]1O` (some centres undefined), the dissociation constant (Kd) was 20 nM. Take `NC[C@@H]1O[C@H](O[C@H]2[C@@H](O)[C@H](O[C@@H]3[C@@H](O)[C@H](N)C[C@H](N)[C@H]3O[C@H]3O[C@H](CN)[C@@H](O)[C@H](O)[C@H]3N)O[C@@H]2CO)[C@H](N)[C@@H](O)[C@@H]1O` [FRAMYCETIN]: the affinity, expressed as Kd, was 350 nM. `NC[C@H]1O[C@H](O[C@H]2[C@H](O)[C@@H](O[C@H]3O[C@H](CO)[C@@H](O)[C@H](N)[C@H]3O)[C@H](N)C[C@@H]2N)[C@H](N)C[C@@H]1O` [TOBRAMYCIN] came in with a dissociation constant (Kd) of 1680 nM.

In turn, `NC[C@H]1O[C@H](O[C@H]2[C@H](O)[C@@H](O[C@H]3O[C@H](CSCCOCCSSCCOCCSC[C@H]4O[C@H](O[C@@H]5[C@@H](O)[C@H](O[C@H]6O[C@H](CN)[C@@H](O)C[C@H]6N)[C@@H](N)C[C@H]5N)[C@H](O)[C@@H](N)[C@@H]4O)[C@@H](O)[C@H](N)[C@H]3O)[C@H](N)C[C@@H]2N)[C@H](N)C[C@@H]1O` [Tobramycin-Tobramycin] came in with a Kd of 1810 nM.
